Data on 34 molecules can be found in patent publication US10774053B2, “HIV protease inhibitors” (Gilead Sciences, Inc., priority 2017, dated 2020).

By EC50 is commonly meant the concentration giving half of the maximal effect.

The assay concerns HIV-1 (IIIB) in MT-4 cells. The assay is described as follows: microbe, parasite or virus in culture. Type of assay: cell-based. The note with it: Human immunodeficiency virus 1, IIIB, MT4, MT-4 cells, HIV-1; read-out: MT4 EC50.

Consider `CC(C)(C)C[C@]1(c2ccc(-c3cnn(C(F)F)c3)cc2)NC(=N)N([C@H](COC(=O)NC23CC(C(F)(F)F)(C2)C3)c2ccc(Cl)c(-n3cncn3)c2)C1=O` [Compound 248], for which the concentration for a half-maximal effect (EC50) was found to be 70.3 nM. Next, `CC(C)(C)C[C@]1(c2ccc(-c3cccc(=O)[nH]3)cc2)NC(=N)N([C@H](COC(=O)NC2(C(F)(F)F)CC2)c2ccc(Cl)c(-n3cncn3)c2)C1=O` [Compound 249]: 325 nM; `CC(C)C[C@]1(c2ccc(-c3cnn(C(F)F)c3)cc2)NC(=N)N([C@H](COC(=O)NC2(C(F)(F)F)CC2)c2ccc(Cl)c(-n3cncn3)c2)C1=O` [Compound 250]: 29.8 nM; `CC(C)(C)C[C@]1(c2ccc(-c3cnn(C(F)F)c3)cc2)NC(=N)N([C@H](COC(=O)NC2(C)CC2)c2ccc(OC(F)(F)F)c(-n3cncn3)c2)C1=O` [Compound 251]: 85.7 nM. The figure for `CC(C)(C)C[C@]1(c2ccc(-c3cnn(C(F)F)c3)cc2)NC(=N)N([C@H](COC(=O)NC2(C)CC2)c2ccc(Cl)c(-n3ncnc3C3CC3)c2)C1=O` [Compound 252] is 20.7 nM. The figure for `CC(C)(C)C[C@]1(c2ccc(-c3cnn(C(F)F)c3)cc2)NC(=N)N([C@H](COC(=O)NC2(C(F)(F)F)CC2)c2ccc(Cl)c(-n3ncnc3C3CC3)c2)C1=O` [Compound 253] is 28.1 nM. As for `Cc1ncnn1-c1cc([C@@H](COC(=O)NC2(C(F)F)CC2)N2C(=N)N[C@](CC(C)(C)C)(c3ccc(-c4cnn(C(F)F)c4)cc3)C2=O)ccc1Cl` [Compound 254], the EC50 was found to be 18 nM. With `CC(C)(C)C[C@]1(c2ccc(-c3cnn(C(F)F)c3)cc2)NC(=N)N([C@H](COC(=O)NC2(C(F)(F)F)CC2)c2ccc(Cl)c(-n3cccn3)c2)C1=O` [Compound 255], the EC50 came out at 22.7 nM. Next, `CC(C)(C)C[C@]1(c2cc(F)cc(F)c2)NC(=N)N([C@H](COC(=O)NC2(C)CC2)c2ccc(Cl)c(-n3cc(-c4ccccn4)cn3)c2)C1=O` [Compound 256]: 554 nM.

Take `CC(C)(C)C[C@]1(c2cc(F)cc(F)c2)NC(=N)N([C@H](COC(=O)NC2(C)CC2)c2ccc(Cl)c(-n3cccn3)c2)C1=O` [Compound 257]: the EC50 turned out to be 4180 nM.

For `CC(C)(C)C[C@]1(c2ccc(-c3cnn(C(F)F)c3)cc2)NC(=N)N([C@H](COC(=O)NC2(C)CC2)c2ccc(Cl)c(-n3cccn3)c2)C1=O` [Compound 258], the concentration for a half-maximal effect (EC50) worked out at 28.5 nM.

Turning to `CCC1(NC(=O)OC[C@H](c2ccc(Cl)c(-n3cccn3)c2)N2C(=N)N[C@](CC(C)(C)C)(c3ccc(-c4cnn(C(F)F)c4)cc3)C2=O)CC1` [Compound 259], the EC50 came to 65.4 nM. The figure for `CC(C)(C)C[C@]1(c2ccc(-c3cnn(C(F)F)c3)cc2)NC(=N)N([C@H](COC(=O)NC2(C)CC2)c2ccc(Cl)c(-n3ccnn3)c2)C1=O` [Compound 260] is 32.4 nM; for `CC(C)(C)C[C@]1(c2ccc(-c3cnn(C(F)F)c3)cc2)NC(=N)N([C@H](COC(=O)N2CC(F)(F)C2)c2ccc(Cl)c(-n3cccn3)c2)C1=O` [Compound 261] it is 29 nM.

In the case of `CC1(NC(=O)OC[C@H](c2ccc(Cl)c(-n3cccn3)c2)N2C(=N)N[C@](CC(C)(C)C(F)(F)F)(c3cc(F)cc(F)c3)C2=O)CC1` [Compound 262], the EC50 stood at 1800 nM. Next, `CC1(NC(=O)OC[C@H](c2ccc(Cl)c(-n3cccn3)c2)N2C(=N)N[C@](CC(C)(C)C(F)(F)F)(c3ccc(Cl)cc3)C2=O)CC1` [Compound 263]: 748 nM; `CC(C)(C)C[C@]1(c2ccc(-c3cnn(C(F)F)c3)cc2)NC(=N)N([C@H](COC(=O)NC2(C)CC2)c2ccc(Cl)c(-n3cc(C4CC4)cn3)c2)C1=O` [Compound 264]: 228 nM. In the case of `CC(C)(C)C[C@]1(c2ccc(-c3cnn(C(F)F)c3)cc2)NC(=N)N([C@H](COC(=O)NC2(C)CC2)c2ccc(Cl)c(-n3cc(C#N)cn3)c2)C1=O` [Compound 265], the EC50 worked out at 17.9 nM. Regarding `CC(C)(C)C[C@]1(c2ccc(-c3cnn(C(F)F)c3)cc2)NC(=N)N([C@H](COC(=O)NC2(C)CC2)c2ccc(Cl)c(-n3cnnn3)c2)C1=O` [Compound 266], the EC50 was determined as 57.4 nM. Next, `N=C1N[C@](C#CC2CC2)(c2ccc(-c3cnn(C(F)F)c3)cc2)C(=O)N1[C@H](COC(=O)NC1(C(F)(F)F)CC1)c1ccc(Cl)c(-n2cccn2)c1` [Compound 267]: 243 nM; `CC(C)(C)C[C@]1(c2ccc(-c3cnn(C(F)F)c3)cc2)NC(=N)N([C@H](COC(=O)NC2(C(F)(F)F)CC2)c2ccc(Cl)c(-n3nccn3)c2)C1=O` [Compound 268]: 37.8 nM.

In the case of `CC(C)(C)C[C@]1(c2ccc(-c3cnn(C(F)F)c3)cc2)NC(=N)N([C@H](COC(=O)NC2(C)CC2)c2cc(-n3cncn3)c(Cl)cn2)C1=O` [Compound 269], the EC50 is 62.4 nM.

On to `CC(C)(C)C[C@]1(c2ccc(-c3ccc(F)cn3)cc2)NC(=N)N([C@H](COC(=O)NC2(C(F)(F)F)CC2)c2ccc(Cl)c(-n3ncnc3C(F)F)c2)C1=O` [Compound 274], for which the concentration for a half-maximal effect (EC50) amounted to 11.1 nM.

For the molecule `CC(C)(C)C[C@]1(c2ccc(-c3ncc(F)cn3)cc2)NC(=N)N([C@H](COC(=O)NC2(C(F)(F)F)CC2)c2ccc(Cl)c(-n3ncnc3C(F)F)c2)C1=O` [Compound 275], the 50% effective concentration (EC50) was found to be 12.8 nM. Next, `CC(C)(C)C[C@]1(c2ccc(-c3ccsn3)cc2)NC(=N)N([C@H](COC(=O)NC2(C(F)(F)F)CC2)c2ccc(Cl)c(-n3ncnc3C(F)F)c2)C1=O` [Compound 276]: 12.5 nM; `CC(C)(C)C[C@]1(c2ccc(-c3cncs3)cc2)NC(=N)N([C@H](COC(=O)NC2(C(F)(F)F)CC2)c2ccc(Cl)c(-n3ncnc3C(F)F)c2)C1=O` [Compound 277]: 6.99 nM; `CC(C)(C)C[C@]1(c2ccc(-c3ccc(C(F)F)nc3)cc2F)NC(=N)N([C@H](COC(=O)NC2(C(F)(F)F)CC2)c2ccc(Cl)c(-n3ncnc3C(F)F)c2)C1=O` [Compound 279]: 23.5 nM. With `CC(C)(C)C[C@]1(c2ccc(C#N)cc2)NC(=N)N([C@H](COC(=O)NC2(C(F)(F)F)CC2)c2ccc(Cl)c(-n3ncnc3C(F)F)c2)C1=O` [Compound 280], the EC50 is 20.7 nM. With `CC(C)(C)C[C@]1(c2ccc(-c3ccc(C#N)cc3)cc2)NC(=N)N([C@H](COC(=O)NC2(C(F)(F)F)CC2)c2ccc(Cl)c(-n3ncnc3C(F)F)c2)C1=O` [Compound 281], the EC50 was 22.2 nM. Next, `CC(C)(C)C[C@]1(c2ccc(-c3ccc(OC(F)F)cc3)cc2)NC(=N)N([C@H](COC(=O)NC2(C(F)(F)F)CC2)c2ccc(Cl)c(-n3ncnc3C(F)F)c2)C1=O` [Compound 282]: 62 nM; `CC(C)(C)C[C@]1(c2ccc(-c3ccc4c(c3)OC(F)(F)O4)cc2)NC(=N)N([C@H](COC(=O)NC2(C(F)(F)F)CC2)c2ccc(Cl)c(-n3ncnc3C(F)F)c2)C1=O` [Compound 283]: 113 nM; `CC(C)(C)C[C@]1(c2ccc(-c3ncns3)cc2F)NC(=N)N([C@H](COC(=O)NC2(C(F)(F)F)CC2)c2ccc(Cl)c(-n3ncnc3C(F)F)c2)C1=O` [Compound 284]: 11.4 nM. Next, `CC(C)(C)C[C@]1(c2ccc(-c3ccn(C(F)F)n3)cc2F)NC(=N)N([C@H](COC(=O)NC2(C(F)(F)F)CC2)c2ccc(Cl)c(-n3ncnc3C(F)F)c2)C1=O` [Compound 285]: 16.8 nM. The figure for `CC(C)(C)C[C@]1(c2ccc(-c3cnn(C(F)F)c3)cc2)NC(=N)N([C@H](COC(=O)N[C@@H]2C[C@@H]2F)c2ccc(Cl)c(-n3ncnc3C(F)F)c2)C1=O` [Compound 287] is 7.55 nM.
